Test results from patent publication EP2914280B1, “SOMATOSTATIN-DOPAMINE CHIMERIC ANALOGS” (IPSEN PHARMA S.A.S., priority 2012, dated 2014).
Where two headings read alike, the source gives them in different places. Numbered stars: 1 amine (or outer) side, 2 acyl side, 3 side chain; on linkers, the order of the positions; unused ones are H or OH. Bridge positions count the residues as written; N and C are the ends. Square brackets hold non-standard residues; d marks the D form. Peptide text beside a SMILES is read from it. * marks the point of attachment. X1 = CN1C[C@H](CSCCN(CCSC[C@@H]2C[C@@H]3c4cccc5[nH]cc(c45)C[C@H]3N(C)C2)[C@H](CCCCN[*:2])C(=O)[*:1])C[C@@H]2c3cccc4[nH]cc(c34)C[C@H]21; X2 = CN1C[C@H](CSCC(=O)*)C[C@@H]2c3cccc4[nH]cc(c34)C[C@H]21; Phe(4-F) = N[C@@H](Cc1ccc(F)cc1)C(=O)O; 4Pal = N[C@@H](Cc1ccncc1)C(=O)O

What was measured:
hSSTR1 = target: T1, hSSTR1 (Homo sapiens, UniProt P30872); assay: Somatostatin receptor radioligand binding assay (hSSTR1)
T1 construct: expressed in transfected cells; host or cells: CHO-K1 (ATCC), pcDNA3.1, G418-selected clonal line; membranes
T1 sequence (P30872 whole entry): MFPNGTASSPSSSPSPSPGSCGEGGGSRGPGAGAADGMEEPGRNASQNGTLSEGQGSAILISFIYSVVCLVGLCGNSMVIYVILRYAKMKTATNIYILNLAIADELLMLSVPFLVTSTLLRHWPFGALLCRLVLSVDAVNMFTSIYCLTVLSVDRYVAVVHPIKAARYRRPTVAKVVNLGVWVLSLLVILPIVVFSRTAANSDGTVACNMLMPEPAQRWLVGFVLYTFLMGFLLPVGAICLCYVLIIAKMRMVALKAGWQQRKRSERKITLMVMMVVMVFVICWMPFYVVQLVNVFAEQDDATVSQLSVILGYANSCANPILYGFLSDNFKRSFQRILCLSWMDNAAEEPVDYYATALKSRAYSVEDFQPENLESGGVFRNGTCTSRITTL

hSSTR2 [1] = target: T2, hSSTR2 (Homo sapiens, UniProt P30874); assay: Intracellular calcium mobilization assay (FLIPR Calcium 4), hSSTR2; format: cell-based;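 also: agonist activity measured in cells expressing hSSTR2, seeded in 384-well plates, loaded with Calcium 4 dye, read-out as rise in intracellular calcium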
T2 construct: host or cells: 'Cells expressing hSSTR2'
T2 sequence (P30874 whole entry): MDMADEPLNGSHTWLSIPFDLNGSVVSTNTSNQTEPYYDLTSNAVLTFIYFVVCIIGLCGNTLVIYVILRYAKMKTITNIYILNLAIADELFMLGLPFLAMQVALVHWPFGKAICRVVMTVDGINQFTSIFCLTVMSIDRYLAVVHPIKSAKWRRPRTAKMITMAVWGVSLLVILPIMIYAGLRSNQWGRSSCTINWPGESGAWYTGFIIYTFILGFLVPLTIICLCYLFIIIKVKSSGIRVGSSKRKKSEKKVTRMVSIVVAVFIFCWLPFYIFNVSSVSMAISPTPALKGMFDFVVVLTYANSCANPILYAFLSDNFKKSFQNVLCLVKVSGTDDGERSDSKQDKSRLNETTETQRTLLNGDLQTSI

hDRD2 [2] = target: T3, hDRD2 (Homo sapiens, UniProt P14416); assay: biochemical; format: binding; parameters: expressed in transfected cells; host or cells: CHO-K1, pcDNA3.1/GS, zeocin-selected clonal line; membranes
T3 sequence (P14416 whole entry): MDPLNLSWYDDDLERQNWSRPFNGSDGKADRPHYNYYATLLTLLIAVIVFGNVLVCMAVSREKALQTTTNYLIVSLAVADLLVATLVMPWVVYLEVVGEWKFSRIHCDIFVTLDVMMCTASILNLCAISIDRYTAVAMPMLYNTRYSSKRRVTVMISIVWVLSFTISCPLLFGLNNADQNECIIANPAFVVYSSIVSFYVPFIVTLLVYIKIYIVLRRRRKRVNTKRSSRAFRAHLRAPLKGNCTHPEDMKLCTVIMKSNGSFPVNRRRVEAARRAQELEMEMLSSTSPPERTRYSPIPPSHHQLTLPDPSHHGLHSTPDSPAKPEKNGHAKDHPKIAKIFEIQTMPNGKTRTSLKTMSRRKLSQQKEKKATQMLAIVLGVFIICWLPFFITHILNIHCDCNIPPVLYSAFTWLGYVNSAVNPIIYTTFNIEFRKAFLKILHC

hDRD2 [3] = target: T3, hDRD2; assay: cell-based; parameters: host or cells: 'Cells expressing hDRD2'; settings: for Emax: read-out: hDRD2 %Emax ± SEM
Description: The ability of select compounds according to the present invention to activate hSSTR2 and hDRD2 was determined by the intracellular calcium mobilization assay using FLIPR Calcium 4 assay kit (Molecular Devices).
Cells expressing hSSTR2 or hDRD2 were plated in 384-well microplates in tissue culture media and incubated for 16-24 hours at 37°C in a humidified atmosphere with 5% CO2. Medium was replaced by loading buffer containing Hank's buffered saline, 20 mM HEPES, 2.5 mM probenecid and Calcium 4 dye, and the plates were incubated at 37°C for 60 minutes.

hSSTR2 [4] = target: T2, hSSTR2; assay: Somatostatin receptor radioligand binding assay (hSSTR2);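 also: radioligand displacement on membranes of CHO-K1 cells stably transfected with human SSTR2, specific binding taken as total minus binding left with 1000 nM SRIF-14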
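For Emax in this document: agonist activity at human DRD2 in DRD2-expressing cells, read as intracellular calcium mobilization with a FLIPR Calcium 4 fluorescent dye.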

Structure (SMILES)	Ki (hSSTR1; CHO-K1 cell membranes, 0.05 nM [125I-Tyr11]-SRIF-14, 60 minutes at 25°C, read-out: hSSTR1 Ki (nM) ± SEM) [nM]	EC50 (hSSTR2 [1]; Table IV, cells expressing hSSTR2, read-out: hSSTR2 EC50 (nM) ± SEM) [nM]	Ki (hDRD2 [2]) [nM]	EC50 (hDRD2 [3]) [nM]	Emax (hDRD2 [3]) [%]	Ki (hSSTR2 [4]; CHO-K1 cell membranes, 0.05 nM [125I-Tyr]-seglitide, 60 minutes at 25°C, read-out: hSSTR2 Ki (nM) ± SEM) [nM]	Ki (hSSTR1) [nM]	EC50 (hSSTR2 [1]) [nM]	Ki (hSSTR2 [4]) [nM]	improvement in EC50 over Reference Compound A (hSSTR2 [1]; p value (Student's t-test, one-tailed) < 0.05, receptor not named)
C[C@@H](O)[C@@H]1NC(=O)[C@H](CCCCN)NC(=O)[C@@H](Cc2c[nH]c3ccccc23)NC(=O)[C@H](Cc2ccncc2)NC(=O)[C@H](Cc2ccccc2)NC(=O)[C@H](CCCNC(=N)N)NC(=O)[C@H](N(CCSC[C@@H]2C[C@@H]3c4cccc5[nH]cc(c45)C[C@H]3N(C)C2)CCSC[C@@H]2C[C@@H]3c4cccc5[nH]cc(c45)C[C@H]3N(C)C2)CCCCNC(=O)[C@H](Cc2ccc(O)cc2)NC1=O [Compound 35, bis[Dop1-psi(CH2N)]-cyclo(DLys-Arg-Phe-4Pal-DTrp-Lys-Thr-Tyr)] (RF[4Pal][dW]KTY; linker N-C via X1)	99.7	19.4 ± 6.2	345 ± 40.4	97.4 ± 21.1	103 ± 1.4	0.17 ± 0.06				
C[C@@H](O)[C@@H]1NC(=O)[C@H](CCCCN)NC(=O)[C@@H](Cc2c[nH]c3ccccc23)NC(=O)[C@H](Cc2ccccc2)NC(=O)[C@H](Cc2ccccc2)NC(=O)[C@H](CCCNC(=N)N)NC(=O)[C@H](NCCSC[C@@H]2C[C@@H]3c4cccc5[nH]cc(c45)C[C@H]3N(C)C2)CCCCNC(=O)[C@H](Cc2ccccc2)NC1=O [Compound 26, Dop1-psi(CH2NH)-cyclo(DLys-Arg-Phe-Phe-DTrp-Lys-Thr-Phe)]			309 ± 56.6	34.1 ± 6.8	93.7 ± 7.2		59	9.8 ± 1.4	2.23 ± 0.97	
C[C@@H](O)[C@@H]1NC(=O)[C@H](CCCCN)NC(=O)[C@@H](Cc2c[nH]c3ccccc23)NC(=O)[C@H](Cc2ccncc2)NC(=O)[C@H](Cc2ccccc2)NC(=O)[C@H](CCCNC(=N)N)NC(=O)[C@H](NCCSC[C@@H]2C[C@@H]3c4cccc5[nH]cc(c45)C[C@H]3N(C)C2)CCCCNC(=O)[C@H](Cc2ccccc2)NC1=O [Compound 23, Dop1-psi(CH2NH)-cyclo(DLys-Arg-Phe-4Pal-DTrp-Lys-Thr-Phe)]			328 ± 19.3	34.2 ± 13.7	96.4 ± 5.3			2.4 ± 0.1	0.09	statistically significant improvement in EC50
C[C@@H](O)[C@@H]1NC(=O)[C@H](CCCCN)NC(=O)[C@@H](Cc2c[nH]c3ccccc23)NC(=O)[C@H](Cc2ccccc2)NC(=O)[C@H](Cc2ccccc2)NC(=O)[C@H](CCCNC(=N)N)NC(=O)[C@H](NCCSC[C@@H]2C[C@@H]3c4cccc5[nH]cc(c45)C[C@H]3N(C)C2)CCCCNC(=O)[C@H](Cc2cc(F)cc(F)c2)NC1=O [Compound 6B, Dop1-psi(CH2NH)-cyclo(DLys-Arg-Phe-Phe-DTrp-Lys-Thr-3,5FPhe)]			25.4 ± 7.9	112 ± 27.8	85.1 ± 9.6			17 ± 6.5	0.25 ± 0.03	
C[C@@H](O)[C@@H]1NC(=O)[C@H](CCCCN)NC(=O)[C@@H](Cc2c[nH]c3ccccc23)NC(=O)[C@H](Cc2ccccc2)NC(=O)[C@H](Cc2ccccc2)NC(=O)[C@H](CCCNC(=N)N)NC(=O)[C@H](NC(=O)CSC[C@@H]2C[C@@H]3c4cccc5[nH]cc(c45)C[C@H]3N(C)C2)CCCCNC(=O)[C@H](Cc2ccc(F)cc2)NC1=O [Compound 34, Dop1-cyclo(DLys-Arg-Phe-Phe-DTrp-Lys-Thr-4FPhe)] (X2-[dK]RFF[dW]KT[Phe(4-F)]; lactam 1-C)			299	72.7	77.9			14.6 ± 5.7	4.55 ± 1.15	
C[C@@H](O)[C@@H]1NC(=O)[C@H](CCCCN)NC(=O)[C@@H](Cc2c[nH]c3ccccc23)NC(=O)[C@H](Cc2ccccc2)NC(=O)[C@H](Cc2ccccc2)NC(=O)[C@H](CCCNC(=N)N)NC(=O)[C@H](NCCCS(=O)(=O)C[C@@H]2C[C@@H]3c4cccc5[nH]cc(c45)C[C@H]3N(C)C2)CCCCNC(=O)[C@H](Cc2ccc(F)cc2)NC1=O [Compound 48, (D-6-methyl-8β-ergolinylmethyl)-sulfonylpropyl-cyclo(DLys-Arg-Phe-Phe-DTrp-Lys-Thr-4FPhe)]			19.4 ± 2.8	78.3 ± 15.2	76.5 ± 2.8			23.6 ± 7.9	0.25 ± 0.1	
C[C@@H](O)[C@@H]1NC(=O)[C@H](CCCCN)NC(=O)[C@@H](Cc2c[nH]c3ccccc23)NC(=O)[C@H](Cc2ccncc2)NC(=O)[C@H](Cc2ccccc2)NC(=O)[C@H](CCCNC(=N)N)NC(=O)[C@H](NC[C@H](CCCCNC(=O)C[S+]([O-])C[C@@H]2C[C@@H]3c4cccc5[nH]cc(c45)C[C@H]3N(C)C2)NC(=O)C[S+]([O-])C[C@@H]2C[C@@H]3c4cccc5[nH]cc(c45)C[C@H]3N(C)C2)CCCCNC(=O)[C@H](Cc2ccc(O)cc2)NC1=O (stereo partly drawn) [Compound 16, Dop1(SO)-Lys[Dop1(SO)]-psi(CH2NH)-cyclo(DLys-Arg-Phe-4Pal-DTrp-Lys-Thr-Tyr)]			22.5 ± 1.9	4.7 ± 0.5	95.2 ± 1.7			6 ± 0.8	0.04 ± 0.03	
C[C@@H](O)[C@@H]1NC(=O)[C@H](CCCCN)NC(=O)[C@@H](Cc2c[nH]c3ccccc23)NC(=O)[C@H](Cc2ccccc2)NC(=O)[C@H](Cc2ccccc2)NC(=O)[C@H](CCCNC(=N)N)NC(=O)[C@H](N(CCSC[C@@H]2C[C@@H]3c4cccc5[nH]cc(c45)C[C@H]3N(C)C2)CCSC[C@@H]2C[C@@H]3c4cccc5[nH]cc(c45)C[C@H]3N(C)C2)CCCCNC(=O)[C@H](Cc2ccc(F)cc2)NC1=O [Compound 39, bis[Dop1-psi(CH2N)]-cyclo(DLys-Arg-Phe-Phe-DTrp-Lys-Thr-4FPhe)] (RFF[dW]KT[Phe(4-F)]; linker N-C via X1)			330 ± 59.5	114 ± 24.4	95.7 ± 2.4			25.9 ± 6.9	3.72 ± 2.01	
CC(=O)N(CCCN[C@@H]1CCCCNC(=O)[C@H](Cc2ccc(F)cc2)NC(=O)[C@H]([C@@H](C)O)NC(=O)[C@H](CCCCN)NC(=O)[C@@H](Cc2c[nH]c3ccccc23)NC(=O)[C@H](Cc2ccccc2)NC(=O)[C@H](Cc2ccccc2)NC(=O)[C@H](CCCNC(=N)N)NC1=O)C[C@@H]1C[C@@H]2c3cccc4[nH]cc(c34)C[C@H]2N(C)C1 [Compound 29A, 3-[N-acetyl-(D-6-methyl-8β-ergolinylmethyl)]-aminopropionyl-psi(CH2NH)-cyclo(DLys-Arg-Phe-Phe-DTrp-Lys-Thr-4FPhe)]			46.8 ± 7.4	62.7 ± 14.8	82.8 ± 6.7			8.2 ± 0.7	0.13	
C[C@@H](O)[C@@H]1NC(=O)[C@H](CCCCN)NC(=O)[C@@H](Cc2c[nH]c3ccccc23)NC(=O)[C@H](Cc2ccccc2)NC(=O)[C@H](Cc2ccccc2)NC(=O)[C@H](CCCNC(=N)N)NC(=O)[C@H](NCCSC[C@@H]2C[C@@H]3c4cccc5[nH]cc(c45)C[C@H]3N(C)C2)CCCCNC(=O)[C@H](Cc2cccc(F)c2)NC1=O [Compound 6C, Dop1-psi(CH2NH)-cyclo(DLys-Arg-Phe-Phe-DTrp-Lys-Thr-3FPhe)]			30.3 ± 3.7	60 ± 21.7	94.4 ± 5.1			16.2 ± 5.9	0.15 ± 0.04	
CC(=O)N(CCCNC[C@@H]1C[C@@H]2c3cccc4[nH]cc(c34)C[C@H]2N(C)C1)[C@@H]1CCCCNC(=O)[C@H](Cc2ccc(F)cc2)NC(=O)[C@H]([C@@H](C)O)NC(=O)[C@H](CCCCN)NC(=O)[C@@H](Cc2c[nH]c3ccccc23)NC(=O)[C@H](Cc2ccccc2)NC(=O)[C@H](Cc2ccccc2)NC(=O)[C@H](CCCNC(=N)N)NC1=O [Compound 22, 3-[N-(D-6-methyl-8β-ergolinylmethyl)]-aminopropionyl-psi(CH2NAc)-cyclo(DLys-Arg-Phe-Phe-DTrp-Lys-Thr-4FPhe)]			200 ± 65	513 ± 129	38.7 ± 8.8			27.5 ± 6.7	0.35 ± 0.18	
